Each structure is given as a SMILES string. Activity calls are given as the source filed them.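 Rule for the calls: active = no band for the ATF-6 stress protein on the immunoblot of thapsigargin-stressed cell lysates; inactive = ATF-6 band still present, cleavage not blocked.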

In this assay the test system is CSM14.1 cells, thapsigargin, ATF-6 Western blot. Nature of the assay: ATF-6 protein induction inhibitors, late-stage follow-up, mechanism study for ER stress cell death inhibitors, cell-based, thapsigargin, Western blot (AID 1390). For orientation: A western blot detects proteins with antibodies after separation by electrophoresis.
As to `COc1ccc(C2CC(=O)C3=C(C2)Nc2ccccc2NC3c2cccc(C(F)(F)F)c2)cc1OC` (stereo unspecified), the outcome was inactive.
Take `COc1ccc(C2CC(=O)C3=C(C2)Nc2ccccc2NC3c2cccc(Br)c2)cc1OC` (stereo unspecified): the result was inactive.
`CCOc1cccc(C2Nc3ccccc3NC3=C2C(=O)CC(c2ccc(OC)cc2)C3)c1` (stereo unspecified): the result was inactive.
The same measure for `O=C1CC(c2ccccc2)CC2=C1C(c1c(F)cccc1Cl)Nc1ccccc1N2` (stereo unspecified): “inactive”; for `CC1(C)CC(=O)C2=C(C1)Nc1ccccc1NC2c1ccc(-c2ccccc2)cc1` (stereo unspecified): “inactive”; for `COc1ccc(C2CC(=O)C3=C(C2)Nc2ccccc2NC3c2ccccc2C(F)(F)F)cc1OC` (stereo unspecified): “inactive”.
The same measure for `COc1ccc(C2CC(=O)C3=C(C2)Nc2ccccc2NC3c2cc(C)ccc2C)cc1` (stereo unspecified): “inactive”; for `CSc1ccc(C2Nc3ccccc3NC3=C2C(=O)CC(c2ccccc2)C3)cc1` (stereo unspecified): “inactive”; for `COc1ccc(C2CC(=O)C3=C(C2)Nc2ccccc2NC3c2cccc(Oc3ccccc3)c2)cc1OC` (stereo unspecified): “inactive”.
The same measure for `CCCOc1ccc(C2Nc3ccccc3NC3=C2C(=O)CC(c2ccc(OC)c(OC)c2)C3)cc1` (stereo unspecified): “inactive”; for `CCOc1cc(C2Nc3ccccc3NC3=C2C(=O)CC(c2ccc(OC)cc2)C3)cc(Cl)c1O` (stereo unspecified): “inactive”.

The values above are taken from PubChem BioAssay AID1390 (Sanford-Burnham Center for Chemical Genomics, 2008).
